According to US8796268B2, “Heteroaryls and uses thereof” (Millennium Pharmaceuticals, Inc., priority 2010, dated 2014):

Tests used:
Assay type in all cases: biochemical
[1] = molecular target: T1, Human PI3K alpha (Homo sapiens, UniProt P42336); experiment: Human PI3K alpha enzyme assay (HTRF); conditions: concentration not given, b1387 states 1.1 μM for PI3K α and β; for inhibition at 1.1 µM: read-out: p110 alpha Percent Inhibition
T1 construct: His (N); host or cells: SF9 insect cells (baculovirus)

[2] = molecular target: T2, Human PI3K beta (Homo sapiens, UniProt P42338); experiment: Human PI3K beta enzyme assay (HTRF); conditions: concentration not given, b1387 states 1.1 μM for PI3K α and β; for inhibition at 1.1 µM: read-out: p110 beta Percent Inhibition
T2 construct: His (N); host or cells: SF9 insect cells (baculovirus)
Outline: (§1)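 Compounds were mixed with 25 uM ATP, then with 3.5 uM di-C8 PI(4,5)P2 and His-tagged PI3K isoform (β 5.25 nM, δ 0.75 nM, γ 5 nM) at pH 7.00. After 30 min at room temperature, EDTA stopped the reaction and PIP3 was measured by HTRF over 1 h.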

[3] = molecular target: T3, Human PI3K delta (Homo sapiens, UniProt O00329); experiment: Human PI3K delta enzyme assay (HTRF); conditions: concentration not given, b1389 states 1.0 μM for PI3K δ and γ; for inhibition at 1 µM: read-out: p110 delta Percent Inhibition
T3 construct: His (N); host or cells: SF9 insect cells (baculovirus)
Outline: as §1

[4] = molecular target: T4, Human PI3K gamma (Homo sapiens, UniProt P48736); experiment: Human PI3K gamma enzyme assay (HTRF); conditions: concentration not given, b1389 states 1.0 μM for PI3K δ and γ; for inhibition at 1 µM: read-out: p110 gamma Percent Inhibition
T4 construct: His (N); host or cells: SF9 insect cells (baculovirus)
Outline: as §1

T1 sequence (P42336 whole entry): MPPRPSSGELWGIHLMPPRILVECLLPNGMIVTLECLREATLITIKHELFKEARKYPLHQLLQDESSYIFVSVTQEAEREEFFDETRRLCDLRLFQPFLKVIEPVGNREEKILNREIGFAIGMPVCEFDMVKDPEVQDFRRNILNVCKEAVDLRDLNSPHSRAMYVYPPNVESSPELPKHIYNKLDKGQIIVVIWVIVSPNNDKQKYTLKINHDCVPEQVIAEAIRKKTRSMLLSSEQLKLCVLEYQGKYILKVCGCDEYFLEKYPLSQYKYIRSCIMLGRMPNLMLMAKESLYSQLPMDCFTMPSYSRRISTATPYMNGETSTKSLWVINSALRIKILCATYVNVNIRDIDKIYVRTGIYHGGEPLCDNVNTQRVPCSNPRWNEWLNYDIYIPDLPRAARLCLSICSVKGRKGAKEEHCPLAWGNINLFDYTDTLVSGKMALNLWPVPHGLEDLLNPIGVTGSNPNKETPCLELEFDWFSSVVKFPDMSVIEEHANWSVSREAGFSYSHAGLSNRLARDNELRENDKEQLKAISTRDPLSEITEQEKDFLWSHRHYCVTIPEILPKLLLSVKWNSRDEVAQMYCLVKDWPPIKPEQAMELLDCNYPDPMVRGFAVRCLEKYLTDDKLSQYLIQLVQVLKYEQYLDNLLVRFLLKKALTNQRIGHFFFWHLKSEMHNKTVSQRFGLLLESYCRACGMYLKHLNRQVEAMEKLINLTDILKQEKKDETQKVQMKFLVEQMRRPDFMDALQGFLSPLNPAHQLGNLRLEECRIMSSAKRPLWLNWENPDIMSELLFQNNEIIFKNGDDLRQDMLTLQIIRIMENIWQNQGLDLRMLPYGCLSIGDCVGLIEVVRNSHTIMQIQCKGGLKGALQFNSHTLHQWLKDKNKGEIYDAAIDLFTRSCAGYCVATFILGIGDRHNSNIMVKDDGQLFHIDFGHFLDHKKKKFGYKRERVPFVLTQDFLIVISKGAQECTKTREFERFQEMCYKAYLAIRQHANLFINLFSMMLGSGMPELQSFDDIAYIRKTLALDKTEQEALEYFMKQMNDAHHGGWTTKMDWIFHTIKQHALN
T1 sequence (P27986 whole entry partner): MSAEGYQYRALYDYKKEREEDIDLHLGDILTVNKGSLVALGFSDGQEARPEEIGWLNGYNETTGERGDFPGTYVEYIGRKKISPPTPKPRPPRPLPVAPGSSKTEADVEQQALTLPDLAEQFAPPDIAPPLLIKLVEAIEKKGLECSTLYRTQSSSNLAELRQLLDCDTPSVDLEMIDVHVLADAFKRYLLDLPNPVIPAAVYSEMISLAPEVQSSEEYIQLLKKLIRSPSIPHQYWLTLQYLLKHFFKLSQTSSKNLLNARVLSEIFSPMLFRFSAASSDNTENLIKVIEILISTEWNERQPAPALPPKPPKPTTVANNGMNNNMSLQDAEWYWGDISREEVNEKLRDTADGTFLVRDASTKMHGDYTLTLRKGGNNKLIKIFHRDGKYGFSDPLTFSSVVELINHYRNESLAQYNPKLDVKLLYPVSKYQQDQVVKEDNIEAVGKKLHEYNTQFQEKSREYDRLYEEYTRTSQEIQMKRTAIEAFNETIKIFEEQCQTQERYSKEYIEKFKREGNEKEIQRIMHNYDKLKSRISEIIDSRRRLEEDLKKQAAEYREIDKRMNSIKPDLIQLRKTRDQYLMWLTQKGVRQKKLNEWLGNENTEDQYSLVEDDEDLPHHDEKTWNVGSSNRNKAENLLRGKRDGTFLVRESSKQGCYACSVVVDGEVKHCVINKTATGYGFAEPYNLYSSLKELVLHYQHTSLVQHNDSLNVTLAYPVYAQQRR
T2 sequence (P42338 whole entry): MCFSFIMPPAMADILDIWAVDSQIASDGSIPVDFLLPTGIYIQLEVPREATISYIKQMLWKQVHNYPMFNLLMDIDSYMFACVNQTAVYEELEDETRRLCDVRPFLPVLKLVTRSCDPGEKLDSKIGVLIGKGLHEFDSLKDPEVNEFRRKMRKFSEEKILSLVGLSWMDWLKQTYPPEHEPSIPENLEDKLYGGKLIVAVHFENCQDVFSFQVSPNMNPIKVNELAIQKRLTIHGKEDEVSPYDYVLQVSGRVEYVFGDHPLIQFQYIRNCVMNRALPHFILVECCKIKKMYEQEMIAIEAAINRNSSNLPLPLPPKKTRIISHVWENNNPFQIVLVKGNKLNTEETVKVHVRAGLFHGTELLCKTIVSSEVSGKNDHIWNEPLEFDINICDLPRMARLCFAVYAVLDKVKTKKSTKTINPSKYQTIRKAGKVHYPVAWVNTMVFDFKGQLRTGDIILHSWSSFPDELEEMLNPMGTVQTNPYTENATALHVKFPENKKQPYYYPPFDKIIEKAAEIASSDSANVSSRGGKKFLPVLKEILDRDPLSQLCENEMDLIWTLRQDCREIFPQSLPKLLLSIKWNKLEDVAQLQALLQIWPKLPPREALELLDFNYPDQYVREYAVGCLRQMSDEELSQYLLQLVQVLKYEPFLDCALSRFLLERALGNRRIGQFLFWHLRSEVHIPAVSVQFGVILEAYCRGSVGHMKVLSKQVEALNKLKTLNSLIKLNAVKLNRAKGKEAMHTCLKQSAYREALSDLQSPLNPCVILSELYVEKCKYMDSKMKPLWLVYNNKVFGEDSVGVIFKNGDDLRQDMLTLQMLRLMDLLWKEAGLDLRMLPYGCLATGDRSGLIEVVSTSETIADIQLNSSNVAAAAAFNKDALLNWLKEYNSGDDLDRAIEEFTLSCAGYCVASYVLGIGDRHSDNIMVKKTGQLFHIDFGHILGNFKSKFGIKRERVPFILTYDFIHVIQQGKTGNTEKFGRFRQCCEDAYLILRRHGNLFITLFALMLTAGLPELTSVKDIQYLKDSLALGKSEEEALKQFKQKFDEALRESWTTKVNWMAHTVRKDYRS
T2 sequence (P27986 whole entry partner): as the sequence (P27986 whole entry partner) above
T4 sequence (P48736 whole entry): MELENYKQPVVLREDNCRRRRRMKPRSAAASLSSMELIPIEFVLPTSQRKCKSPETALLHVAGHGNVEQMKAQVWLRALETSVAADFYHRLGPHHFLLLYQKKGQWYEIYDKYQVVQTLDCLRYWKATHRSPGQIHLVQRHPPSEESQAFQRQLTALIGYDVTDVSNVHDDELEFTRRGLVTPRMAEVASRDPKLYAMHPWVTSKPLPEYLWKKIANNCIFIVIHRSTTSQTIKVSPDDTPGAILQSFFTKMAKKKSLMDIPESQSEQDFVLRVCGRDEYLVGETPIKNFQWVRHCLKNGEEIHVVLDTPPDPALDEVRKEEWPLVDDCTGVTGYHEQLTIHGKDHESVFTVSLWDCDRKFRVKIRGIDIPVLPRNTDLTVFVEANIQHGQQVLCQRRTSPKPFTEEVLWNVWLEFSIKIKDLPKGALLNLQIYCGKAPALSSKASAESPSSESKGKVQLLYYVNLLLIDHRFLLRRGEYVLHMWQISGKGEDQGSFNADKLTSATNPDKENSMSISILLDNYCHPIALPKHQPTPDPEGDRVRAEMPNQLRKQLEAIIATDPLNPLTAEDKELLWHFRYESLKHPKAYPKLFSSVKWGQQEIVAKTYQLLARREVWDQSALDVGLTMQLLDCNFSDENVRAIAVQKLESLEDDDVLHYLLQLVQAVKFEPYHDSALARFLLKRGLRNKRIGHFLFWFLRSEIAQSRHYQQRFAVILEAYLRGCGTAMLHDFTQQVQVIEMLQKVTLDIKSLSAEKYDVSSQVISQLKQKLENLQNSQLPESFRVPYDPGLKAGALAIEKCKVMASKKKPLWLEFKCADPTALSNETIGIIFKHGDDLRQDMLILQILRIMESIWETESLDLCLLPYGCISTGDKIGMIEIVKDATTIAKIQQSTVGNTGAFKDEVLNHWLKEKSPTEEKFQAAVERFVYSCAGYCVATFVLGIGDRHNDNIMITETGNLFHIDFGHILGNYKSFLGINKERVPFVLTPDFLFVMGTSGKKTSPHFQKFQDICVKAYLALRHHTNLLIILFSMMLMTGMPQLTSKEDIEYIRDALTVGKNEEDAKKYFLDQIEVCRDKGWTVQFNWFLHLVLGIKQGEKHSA
T3 sequence (O00329 whole entry): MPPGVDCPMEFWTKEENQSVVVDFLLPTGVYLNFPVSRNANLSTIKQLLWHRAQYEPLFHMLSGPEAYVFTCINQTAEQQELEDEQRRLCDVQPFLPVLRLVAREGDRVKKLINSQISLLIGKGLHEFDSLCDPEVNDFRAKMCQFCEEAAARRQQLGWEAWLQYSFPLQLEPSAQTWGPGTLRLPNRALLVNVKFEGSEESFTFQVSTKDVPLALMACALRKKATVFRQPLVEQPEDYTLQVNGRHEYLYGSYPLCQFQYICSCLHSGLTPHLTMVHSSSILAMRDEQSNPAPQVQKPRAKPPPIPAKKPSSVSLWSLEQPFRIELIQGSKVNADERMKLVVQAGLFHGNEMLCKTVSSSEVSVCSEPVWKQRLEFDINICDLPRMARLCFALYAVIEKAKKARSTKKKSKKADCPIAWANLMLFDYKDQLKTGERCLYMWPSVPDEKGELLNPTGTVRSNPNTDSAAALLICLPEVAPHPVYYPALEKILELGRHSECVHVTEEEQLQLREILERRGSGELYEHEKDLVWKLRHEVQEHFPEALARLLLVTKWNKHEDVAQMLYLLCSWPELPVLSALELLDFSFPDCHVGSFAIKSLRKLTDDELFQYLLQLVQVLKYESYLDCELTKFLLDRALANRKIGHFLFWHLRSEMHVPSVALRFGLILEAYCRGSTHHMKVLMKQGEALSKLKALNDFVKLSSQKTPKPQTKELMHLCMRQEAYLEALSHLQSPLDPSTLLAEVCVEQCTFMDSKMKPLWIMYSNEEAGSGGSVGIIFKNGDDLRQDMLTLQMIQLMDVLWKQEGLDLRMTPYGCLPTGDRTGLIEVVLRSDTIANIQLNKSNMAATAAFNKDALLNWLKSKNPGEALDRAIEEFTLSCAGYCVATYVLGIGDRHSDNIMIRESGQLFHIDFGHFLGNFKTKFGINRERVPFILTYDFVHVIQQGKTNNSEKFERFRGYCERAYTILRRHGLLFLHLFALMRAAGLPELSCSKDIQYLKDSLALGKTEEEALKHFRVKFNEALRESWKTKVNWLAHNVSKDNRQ
T3 sequence (P27986 whole entry partner): as the sequence (P27986 whole entry partner) above

| Structure (SMILES) | inhibition at 1.1 µM [1] [%] | inhibition at 1.1 µM [2] [%] | inhibition at 1 µM [3] [%] | inhibition at 1 µM [4] [%] | p110 alpha Percent Inhibition [1] [%] | p110 beta Percent Inhibition [2] [%] | p110 delta Percent Inhibition [3] [%] | p110 gamma Percent Inhibition [4] [%] |
| --- | --- | --- | --- | --- | --- | --- | --- | --- |
| COc1cnc(Cl)cc1-c1cc(C(O)c2ccc(Cl)cc2)c(-c2nnc[nH]2)s1 (stereo not drawn) [Compound 197] | 15 | 23 | 19 | 4 |  |  |  |  |
| N#Cc1c(-c2ccnnc2)sc(-c2nnc[nH]2)c1C(O)c1ccc2ccccc2c1 (stereo not drawn) [Compound 198] | 18 | 108 | 70 | 35 |  |  |  |  |
| OC(c1ccc(F)c(F)c1)c1cc(-c2ccncc2)sc1-c1nnc[nH]1 (stereo not drawn) [Compound 199] | 21 | 64 | 42 | 16 |  |  |  |  |
| COc1ccc(C(O)c2cc(-c3ccncc3)sc2-c2nnc[nH]2)cc1C (stereo not drawn) [Compound 202] | 12 | 80 | 54 | 8 |  |  |  |  |
| OC(c1cc(-c2ccncc2)sc1-c1nnc[nH]1)c1c(F)ccc2ccccc12 (stereo not drawn) [Compound 203] |  |  |  |  | 10 | 88 | 67 | 16 |
| O=C(O)c1sc(-c2ccncc2)cc1C(O)c1ccc2ccccc2c1 (stereo not drawn) [Compound 205, 3-[hydroxy(2-naphthyl)methyl]-5-pyridin-4-ylthiophene-2-carboxylic acid] | 42 | 114 | 83 | 64 |  |  |  |  |
| OC(c1ccc(-c2ccncc2)cc1)c1cc(-c2ccncc2)sc1-c1nnc[nH]1 (stereo not drawn) [Compound 207] | 27 | 83 | 51 | 9 |  |  |  |  |
| OC(c1ccc2ccccc2c1)c1cc(-c2ccncc2)sc1-c1nnc[nH]1 (stereo not drawn) [Compound 208] |  |  |  |  | 42 | 108 | 107 | 47 |
| O=C(O)c1sc(-c2ccncc2)cc1Cc1ccc2ccccc2c1 [Compound 210, 3-(2-naphthylmethyl)-5-pyridin-4-ylthiophene-2-carboxylic acid] | 52 | 110 | 92 | 68 |  |  |  |  |
| CC(=O)Nc1cc(-c2nc(Cc3ccc4ccccc4c3)c(-c3nnc[nH]3)s2)ccn1 [Compound 213] | 57 | 80 | 109 | 35 |  |  |  |  |
| OC(c1ccc(-c2cccnc2)cc1)c1cc(-c2ccncc2)sc1-c1nnc[nH]1 (stereo not drawn) [Compound 214] | 46 | 84 | 46 | 14 |  |  |  |  |
| OC(c1ccc2c(c1)OCCO2)c1cc(-c2ccncc2)sc1-c1nnc[nH]1 (stereo not drawn) [Compound 215] | 29 | 85 | 51 | 8 |  |  |  |  |
| OC(c1ccccc1Cl)c1cc(-c2ccncc2)sc1-c1nnc[nH]1 (stereo not drawn) [Compound 217] | 30 | 74 | 60 | 24 |  |  |  |  |
| OC(c1ccc(Cl)cc1Cl)c1cc(-c2ccncc2)sc1-c1nnc[nH]1 (stereo not drawn) [Compound 219] | 32 | 101 | 107 | 31 |  |  |  |  |
| N#Cc1c(-c2ccnnc2)sc(-c2nnc[nH]2)c1C(c1ccc(Cl)cc1)N1CCNCC1 (stereo not drawn) [Compound 227] | -2 | 76 | 24 | 3 |  |  |  |  |

Now from value to compound:

| inhibition at 1.1 µM [1] [%] | inhibition at 1.1 µM [2] [%] | inhibition at 1 µM [3] [%] | inhibition at 1 µM [4] [%] | p110 alpha Percent Inhibition [1] [%] | p110 beta Percent Inhibition [2] [%] | p110 delta Percent Inhibition [3] [%] | p110 gamma Percent Inhibition [4] [%] | Structure (SMILES) |
| --- | --- | --- | --- | --- | --- | --- | --- | --- |
| 101 | 118 | 111 | 60 |  |  |  |  | CC(=O)Nc1cc(-c2cc(C(c3ccc(Cl)cc3)N3CC(N)C3)c(-c3nnc[nH]3)s2)ccn1 (stereo not drawn) [Compound 200] |
| 74 | 105 | 110 | 37 |  |  |  |  | CC(=O)Nc1cc(-c2cc(C(c3ccc(Cl)cc3)N3CC(O)C3)c(-c3nnc[nH]3)s2)ccn1 (stereo not drawn) [Compound 201] |
| 90 | 96 | 106 | 11 |  |  |  |  | CC(=O)Nc1cc(-c2cc(C(c3ccc(Cl)cc3)n3cccn3)c(-c3nnc[nH]3)s2)ccn1 (stereo not drawn) [Compound 206] |
| 92 | 107 | 108 | 34 |  |  |  |  | CN[C@@H]1CCN(C(c2ccc(Cl)cc2)c2cc(-c3ccnc(NC(C)=O)c3)sc2-c2nnc[nH]2)C1 (stereo partly drawn) [Compound 209] |
| 111 | 111 | 106 | 13 |  |  |  |  | CC(=O)Nc1cc(-c2cc(C(N=[N+]=[N-])c3ccc(Cl)cc3)c(-c3nnc[nH]3)s2)ccn1 (stereo not drawn) [Compound 211] |
| 87 | 109 | 112 | 38 |  |  |  |  | CC(=O)Nc1cc(-c2cc(C(c3ccc(Cl)cc3)N3CC[C@@H](O)C3)c(-c3nnc[nH]3)s2)ccn1 (stereo partly drawn) [Compound 212] |
| 64 | 91 | 99 | 11 |  |  |  |  | CC(=O)Nc1cc(-c2cc(C(c3ccc(Cl)cc3)N3CC(F)(F)C3)c(-c3nnc[nH]3)s2)ccn1 (stereo not drawn) [Compound 216] |
| 61 | 102 | 97 | 14 |  |  |  |  | CC(=O)Nc1cc(-c2sc(-c3nnc[nH]3)c(C(c3ccc(Cl)cc3)N3CCNCC3)c2C#N)ccn1 (stereo not drawn) [Compound 218] |
| 92 | 91 | 99 | 9 |  |  |  |  | COC(c1ccc(Cl)cc1)c1cc(-c2ccnc(NC(C)=O)c2)sc1-c1nnc[nH]1 (stereo not drawn) [Compound 220] |
| 62 | 94 | 100 | 8 |  |  |  |  | CC(=O)Nc1cc(-c2cc(C(c3ccc(Cl)cc3)N3CCC(F)(F)CC3)c(-c3nnc[nH]3)s2)ccn1 (stereo not drawn) [Compound 221] |
| 68 | 98 | 102 | 9 |  |  |  |  | CC(=O)Nc1cc(-c2cc(C(c3ccc(Cl)cc3)N(C)C3CCNCC3)c(-c3nnc[nH]3)s2)ccn1 (stereo not drawn) [Compound 222] |
| 67 | 94 | 102 | 21 |  |  |  |  | CC(=O)Nc1cc(-c2cc(C(c3ccc(Cl)cc3)N3CC[C@@H](CO)C3)c(-c3nc[nH]n3)s2)ccn1 (stereo partly drawn) [Compound 223] |
| 70 | 92 | 103 | 15 |  |  |  |  | CC(=O)Nc1cc(-c2cc(C(c3ccc(Cl)cc3)N3CCN(S(C)(=O)=O)CC3)c(-c3nnc[nH]3)s2)ccn1 (stereo not drawn) [Compound 224] |
| 51 | 52 | 84 | 51 |  |  |  |  | CC(=O)Nc1cc(-c2cc(/C(=C/CCN(C)C)c3ccc(Cl)cc3)c(-c3nnc[nH]3)s2)ccn1 [Compound 225] |
| 46 | 98 | 93 | 14 |  |  |  |  | CC(=O)Nc1cc(-c2cc(C(NCCO)c3ccc(Cl)cc3)c(-c3nnc[nH]3)s2)ccn1 (stereo not drawn) [Compound 226] |
